Literature values, collected in patent US20170209405A1, “APPLICATION OF COMPOUND MIXTURES TO CONTROL OXIDATION” (priority 2016, published 2017).

Columns and labels:
[1] = adults
[2] = tested on: sperm DNA damage (DNA-strand breaks); settings: men aged 45 and up, highest dosages of vitamin C (up to 700 mg daily)

Q: With `NC(=O)c1cccnc1` [nicotinamide] as the compound, how does the “dose above which it may be toxic to the liver” value [1] read?
A: Its value is “exceeding 3 g/day”.

Q: Which “less DNA damage than those who took less of the supplements” value [2] does the source give for `O=C1O[C@H]([C@@H](O)CO)C(O)=C1O` [vitamin C] here?
A: The value was 20%.
